Where “and” joins values, the source holds several entries; their conditions need not be identical. Equal values may be shown once.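 Cultured in 96-well plates, cells were exposed to test compound for 48 hours across five concentrations. The concentration for 50% growth inhibition is given as GI50. At the TGI there is no net growth.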

Among the test systems are RPMI-8226 leukemia; MDA-MB-231 breast; SF-268 CNS; HOP-92 NSCLC; HL-60(TB) leukemia; OVCAR-4 ovarian; HCT-15 colon; UACC-257 melanoma.
Assay in all cases: growth of human tumour cells (NCI), 48 h

For `Cc1cc2c(cc1Cl)SC(=Nc1ccc(Cl)cc1)N(S(=O)(=O)c1ccc(Br)s1)S2(=O)=O`, the GI50 was 3.7 µM in the test with RPMI-8226 leukemia; 12.9 µM with MDA-MB-231 breast; 32.2 µM in the test on SF-268 CNS; 12.1 µM in the test on HOP-92 NSCLC; 22.4 µM in the test on HL-60(TB) leukemia; 18.4 µM in the test on OVCAR-4 ovarian. Besides, the values for the GI50 in the test on HCT-15 colon and in the test on UACC-257 melanoma were 11.9 µM and 16 µM, respectively. The TGI with RPMI-8226 leukemia was 21.5 µM; in the test on MDA-MB-231 breast, 38.9 µM; in the test on SF-268 CNS, more than 100 µM; in the test with HOP-92 NSCLC it was 46.1 µM; in the test with HL-60(TB) leukemia, 46.8 µM; with OVCAR-4 ovarian it was 66.3 µM. The figures for the TGI in the test on HCT-15 colon and in the test on UACC-257 melanoma were 29.7 µM and 38.7 µM, respectively.
`CC[C@@H]1C(=O)N(C)c2cnc(Nc3ccc(C(=O)NC4CCC(N5CCN(CC6CC6)CC5)CC4)cc3OC)nc2N1C(C)C` (stereo not given in full): the GI50 is 0.0382 µM and 0.0558 µM in the test with RPMI-8226 leukemia; 0.0186 µM and 0.0304 µM with MDA-MB-231 breast; 0.0586 µM and 0.0485 µM with SF-268 CNS; 0.0441 µM and 0.0596 µM with HOP-92 NSCLC; 0.00286 µM and < 0.0167 µM in the test with HL-60(TB) leukemia; 0.89 µM and 0.466 µM in the test with OVCAR-4 ovarian. For the same molecule, the GI50 with HCT-15 colon is 0.0686 µM and 0.145 µM; in the test with UACC-257 melanoma it was 0.22 µM and 0.046 µM. Also, the TGI in the test with RPMI-8226 leukemia was 1.62 µM and 1.89 µM; with MDA-MB-231 breast, > 4.6 µM and 7.06 µM; in the test on SF-268 CNS, > 10 µM and 7.8 µM; with HOP-92 NSCLC, > 2.9 µM and 5.99 µM; in the test on HL-60(TB) leukemia, 0.0596 µM and 0.0871 µM; in the test on OVCAR-4 ovarian, > 10 µM and 19 µM. Also, the TGI with HCT-15 colon was > 6.64 µM and 5.33 µM; with UACC-257 melanoma it was > 5.86 µM and 1.75 µM.
Turning to `COc1ccc(-c2cc(=O)c3c(C)ccnc3[nH]2)cc1`, the TGI in the test on RPMI-8226 leukemia is 53 µM; in the test on MDA-MB-231 breast, more than 100 µM; in the test on SF-268 CNS it was 44.3 µM; in the test with HL-60(TB) leukemia it was 17.3 µM; in the test on OVCAR-4 ovarian, more than 100 µM; in the test on HCT-15 colon, more than 100 µM. Further, in the test on UACC-257 melanoma, the TGI was more than 100 µM. Further, the GI50 with HL-60(TB) leukemia was 4.37 µM.
In the case of `COc1cccc(C2CC(C)(O)Oc3cc4c(cc32)OCO4)c1` (stereo not given), the TGI in the test on RPMI-8226 leukemia is 66.2 µM; in the test with MDA-MB-231 breast, 96.2 µM; in the test with SF-268 CNS, more than 100 µM; in the test on HOP-92 NSCLC, 93.3 µM; in the test with HL-60(TB) leukemia, more than 100 µM; in the test with OVCAR-4 ovarian, more than 100 µM. The values for the TGI with HCT-15 colon and in the test with UACC-257 melanoma were 83.3 µM and more than 100 µM, respectively.
Consider `Cc1ccc(/C=C/C(=O)c2ccc(F)cc2)s1`, for which the GI50 in the test on MDA-MB-231 breast was 10.2 µM; in the test on SF-268 CNS, 2.19 µM; in the test with HOP-92 NSCLC it was 1.6 µM; with HL-60(TB) leukemia, 2.26 µM; in the test with OVCAR-4 ovarian it was 11.7 µM; in the test with HCT-15 colon, 4.14 µM. For the same molecule, in the test with UACC-257 melanoma, the GI50 is 3.33 µM. In addition, the TGI in the test with MDA-MB-231 breast amounted to 24 µM; with SF-268 CNS, 4.91 µM; with HOP-92 NSCLC, 3.4 µM; in the test on HL-60(TB) leukemia it was 7.22 µM; in the test with OVCAR-4 ovarian it was 29.8 µM; with HCT-15 colon, 18.4 µM. The molecule also came in with a TGI in the test on UACC-257 melanoma of 14.1 µM.
As for `O=C(O)c1c2c(c(O)c3c1CN(C1CCCCC1)CO3)OCN(C1CCCCC1)C2`, the TGI with RPMI-8226 leukemia, in the test on MDA-MB-231 breast, in the test with SF-268 CNS, in the test with HOP-92 NSCLC, in the test on OVCAR-4 ovarian and with HCT-15 colon was more than 100 µM in each case. Further, in the test with UACC-257 melanoma, the TGI was more than 100 µM.
With `O=C(O)C1CCCN1` (stereo not given), the TGI in the test on RPMI-8226 leukemia, in the test with MDA-MB-231 breast, with SF-268 CNS, in the test with HOP-92 NSCLC, with HL-60(TB) leukemia and in the test with OVCAR-4 ovarian was more than 100 µM in each case. The TGI in the test on HCT-15 colon and in the test with UACC-257 melanoma was more than 100 µM each time.
`Oc1ccc(CCNc2nc3ccccc3c3[nH]c4ccccc4c23)cc1O`: the GI50 in the test on MDA-MB-231 breast was 2.98 µM; with SF-268 CNS it was 5.7 µM; in the test with HOP-92 NSCLC, 1.31 µM; in the test with HL-60(TB) leukemia, 2.07 µM; with OVCAR-4 ovarian it was 4.8 µM; in the test on HCT-15 colon, 1.9 µM. Further, the GI50 in the test on UACC-257 melanoma is 25.5 µM. Further, the TGI is 11.8 µM in the test with MDA-MB-231 breast; 30.1 µM with SF-268 CNS; 2.95 µM in the test on HOP-92 NSCLC; 4.36 µM in the test on HL-60(TB) leukemia; 16.9 µM in the test with OVCAR-4 ovarian; 3.95 µM with HCT-15 colon. Moreover, in the test on UACC-257 melanoma, the TGI was 40.2 µM.
Turning to `OC(c1ccccc1)c1c(-c2ccccc2)[nH]c(-c2ccccc2)c1C(O)c1ccccc1` (stereo not given), the TGI was determined as 5.02 µM with RPMI-8226 leukemia; 23 µM in the test on SF-268 CNS; 5.46 µM with HOP-92 NSCLC; 4.24 µM with HL-60(TB) leukemia; 4.82 µM with OVCAR-4 ovarian; 40.1 µM in the test with HCT-15 colon. The TGI in the test on UACC-257 melanoma amounted to 8.61 µM.
Consider `CN1CCN(c2cc(F)c(NC3=C(Cl)C(=O)c4ncccc4C3=O)c(F)c2)CC1`, for which the GI50 in the test with MDA-MB-231 breast was 1.94 µM; in the test with SF-268 CNS, 1.7 µM; in the test on HOP-92 NSCLC, 1.69 µM; in the test with HL-60(TB) leukemia it was 1.65 µM; with OVCAR-4 ovarian, 1.35 µM; with HCT-15 colon, 1.53 µM. Further, the GI50 in the test on UACC-257 melanoma was 1.43 µM. Further, the TGI with MDA-MB-231 breast came to 3.87 µM; with SF-268 CNS, 3.44 µM; with HOP-92 NSCLC, 3.22 µM; in the test with HL-60(TB) leukemia, 5.46 µM; in the test with OVCAR-4 ovarian, 2.65 µM; in the test with HCT-15 colon it was 3.06 µM. In the test with UACC-257 melanoma, the TGI was 2.78 µM.
As to `COCCn1c(Nc2ccc(C(=O)NO)cc2)nc2ccccc21`, the GI50 is 3.7 µM with RPMI-8226 leukemia; 4.65 µM with MDA-MB-231 breast; 4.9 µM in the test on SF-268 CNS; 3.63 µM in the test on HL-60(TB) leukemia; 16.1 µM in the test on OVCAR-4 ovarian; 9.14 µM in the test with HCT-15 colon. For the same molecule, the GI50 in the test with UACC-257 melanoma is 1.77 µM. The TGI in the test with RPMI-8226 leukemia was more than 100 µM; with MDA-MB-231 breast, 44.7 µM; in the test on SF-268 CNS, 17.5 µM; in the test with HL-60(TB) leukemia it was more than 100 µM; in the test on OVCAR-4 ovarian, more than 100 µM; with HCT-15 colon, 31.5 µM. This molecule also registered a TGI in the test with UACC-257 melanoma of 14.1 µM.
Regarding `CCN(CC)CCN1C(=O)C2C3C(C)=CC(OC(C)=O)(CC3C)C2C1=O` (stereo not given), the GI50 in the test with MDA-MB-231 breast, in the test with SF-268 CNS, in the test with HOP-92 NSCLC, in the test on HL-60(TB) leukemia, with OVCAR-4 ovarian and with HCT-15 colon was more than 100 µM in each case. The GI50 with UACC-257 melanoma is more than 100 µM. Besides, the TGI in the test on MDA-MB-231 breast, with SF-268 CNS, in the test with HOP-92 NSCLC, with HL-60(TB) leukemia, with OVCAR-4 ovarian and with HCT-15 colon was more than 100 µM throughout. Moreover, the TGI in the test on UACC-257 melanoma is more than 100 µM.
